Experimental findings from ChEMBL document CHEMBL4819021, “Paratrimerins J-Y, Dimeric Coumarins Isolated from the Stems of Paramignya trimera” (J Nat Prod, 2021) are described below.

Calls of active or inactive are those of the source. The calls are words filed in the database; no cut-off is given here.

Type in all cases: functional, cell-based
One experiment concerns Huh-7. The experiment is described as follows: Cytotoxicity against human Huh-7 cells assessed as reduction in cell viability measured after 72 hrs by MTS assay. The settings on record: Huh-7, 72 h. (Tetrazolium assays rely on reduction of a dye to a coloured formazan, in cell work by metabolically active cells.)
The next experiment has as its system HT-1080. Description: Cytotoxicity against human HT-1080 cells assessed as reduction in cell viability measured after 72 hrs by MTS assay. The settings on record: HT-1080, 72 h.
The next experiment has as its system HT-29. Description: Cytotoxicity against human HT-29 cells harboring Ras/Raf mutant assessed as reduction in cell viability measured after 72 hrs by MTS assay. The settings on record: HT-29, 72 h.
The test system of the next experiment is SK-HEP1. The experiment is described as follows: Cytotoxicity against human SK-HEP1 cells assessed as reduction in cell viability at 40 uM measured after 72 hrs by MTS assay.
The next experiment concerns COLO 205. The experiment is described as follows: Cytotoxicity against human COLO 205 cells assessed as reduction in cell viability at 40 uM measured after 72 hrs by MTS assay.
The next experiment concerns HCT-8. The experiment is described as follows: Cytotoxicity against human HCT-8 cells assessed as reduction in cell viability at 40 uM measured after 72 hrs by MTS assay.
Another experiment relates to HCT-116. The experiment is described as follows: Cytotoxicity against human HCT-116 cells assessed as reduction in cell viability at 40 uM measured after 72 hrs by MTS assay.
The subject of another experiment is KM12. Description: Cytotoxicity against human KM12 cells assessed as reduction in cell viability at 40 uM measured after 72 hrs by MTS assay.
The test system of the next experiment is RKO. Description: Cytotoxicity against human RKO cells assessed as reduction in cell viability at 40 uM measured after 72 hrs by MTS assay.
The test system of the next experiment is SW480. The experiment is described as follows: Cytotoxicity against human SW480 cells assessed as reduction in cell viability at 40 uM measured after 72 hrs by MTS assay.
The subject of another experiment is SW-620. The experiment is described as follows: Cytotoxicity against human SW-620 cells assessed as reduction in cell viability at 40 uM measured after 72 hrs by MTS assay.
For another experiment, the system named is BT-549. The experiment is described as follows: Cytotoxicity against human BT-549 cells assessed as reduction in cell viability at 40 uM measured after 72 hrs by MTS assay.
Another experiment deals with HCC38. The experiment is described as follows: Cytotoxicity against human HCC38 cells assessed as reduction in cell viability at 40 uM measured after 72 hrs by MTS assay.
In a further experiment the test system is HCC70. Description: Cytotoxicity against human HCC70 cells assessed as reduction in cell viability at 40 uM measured after 72 hrs by MTS assay.
For a further experiment, the system named is HCC1428. Description: Cytotoxicity against human HCC1428 cells assessed as reduction in cell viability at 40 uM measured after 72 hrs by MTS assay.
The subject of the next experiment is Hs-578T. Description: Cytotoxicity against human Hs-578T cells assessed as reduction in cell viability at 40 uM measured after 72 hrs by MTS assay.
The next experiment concerns MDA-MB-231. Description: Cytotoxicity against human MDA-MB-231 cells assessed as reduction in cell viability at 40 uM measured after 72 hrs by MTS assay.
A further experiment has as its system MDA-MB-435. The experiment is described as follows: Cytotoxicity against human MDA-MB-435 cells assessed as reduction in cell viability at 40 uM measured after 72 hrs by MTS assay.
A further experiment has as its system MDA-MB-468. Description: Cytotoxicity against human MDA-MB-468 cells assessed as reduction in cell viability at 40 uM measured after 72 hrs by MTS assay.
Another experiment relates to MCF7. The experiment is described as follows: Cytotoxicity against human MCF7 cells assessed as reduction in cell viability at 40 uM measured after 72 hrs by MTS assay.
A further experiment concerns SK-BR-3. Description: Cytotoxicity against human SK-BR-3 cells assessed as reduction in cell viability at 40 uM measured after 72 hrs by MTS assay.
The test system of a further experiment is T47D. Description: Cytotoxicity against human T47D cells assessed as reduction in cell viability at 40 uM measured after 72 hrs by MTS assay.

By IC50 is commonly meant the concentration that gives 50% inhibition. `CC(C)=CCC/C(C)=C/Cc1cc(/C=C/C(=O)O[C@@H](Cc2c(OCC=C(C)C)ccc3ccc(=O)oc23)C(C)(C)O)c(O)cc1O`: the concentration for half-maximal inhibition (IC50) with Huh-7 was determined as 14.9 µM; in the experiment on HT-1080 it was 18.4 µM; in the experiment with HT-29 it was 22.5 µM.
With `CC1=C[C@@H](c2cc3ccc(=O)oc3cc2O[C@@H]2O[C@H](COC3OC[C@@H](O)[C@H](O)[C@H]3O)[C@@H](O)[C@H](O)[C@H]2O)[C@@](C)(/C=C/c2cc3ccc(=O)oc3cc2O[C@@H]2O[C@H](COC3OC[C@@H](O)[C@H](O)[C@H]3O)[C@@H](O)[C@H](O)[C@H]2O)CC1` (stereo not given in full), the outcome in the experiment with SK-HEP1, in the experiment with COLO 205, with HCT-8, with HCT-116, in the experiment with KM12 and in the experiment on RKO was inactive. Moreover, the outcome in the experiment with SW480, in the experiment with SW-620, in the experiment on BT-549, in the experiment on HCC38, with HCC70 and in the experiment on HCC1428 was inactive. Besides, the outcome in the experiment with Hs-578T, with MDA-MB-231, with MDA-MB-435, with MDA-MB-468, in the experiment on MCF7 and in the experiment on SK-BR-3 was inactive. Also, the outcome with T47D was inactive.
For the compound `CC1=C[C@@H](c2cc3ccc(=O)oc3cc2O[C@@H]2O[C@H](COC3OC[C@@H](O)[C@H](O)[C@H]3O)[C@@H](O)[C@H](O)[C@H]2O)[C@@](C)(/C=C/c2cc3ccc(=O)oc3cc2O[C@@H]2O[C@H](CO)[C@@H](O)[C@H](O)[C@H]2O)CC1` (stereo not given in full), the outcome in the experiment on SK-HEP1, in the experiment on COLO 205, in the experiment with HCT-8, with HCT-116, in the experiment on KM12 and in the experiment on RKO was inactive. Moreover, the result with SW480, with SW-620, in the experiment with BT-549, with HCC38, with HCC70 and in the experiment on HCC1428 was inactive. Also, the result in the experiment on Hs-578T, with MDA-MB-231, in the experiment on MDA-MB-435, in the experiment on MDA-MB-468, in the experiment on MCF7 and with SK-BR-3 was inactive. In addition, the result in the experiment on T47D was inactive.
For `CC1=C[C@H](c2cc3ccc(=O)oc3cc2O[C@@H]2O[C@H](COC3OC[C@@H](O)[C@H](O)[C@H]3O)[C@@H](O)[C@H](O)[C@H]2O)[C@](C)(/C=C/c2cc3ccc(=O)oc3cc2O[C@@H]2O[C@H](COC3OC[C@@H](O)[C@H](O)[C@H]3O)[C@@H](O)[C@H](O)[C@H]2O)CC1` (stereo not given in full), the outcome with SK-HEP1, in the experiment on COLO 205, in the experiment on HCT-8, in the experiment on HCT-116, in the experiment on KM12 and in the experiment on RKO was inactive. Also, the result with SW480, in the experiment with SW-620, in the experiment on BT-549, with HCC38, in the experiment on HCC70 and with HCC1428 was inactive. The result in the experiment with Hs-578T, in the experiment with MDA-MB-231, in the experiment on MDA-MB-435, in the experiment on MDA-MB-468, in the experiment with MCF7 and in the experiment with SK-BR-3 was inactive. For the same compound, the outcome in the experiment on T47D was inactive.
